# In patent US7902361B2, “Pyrimidin-4-yl-3, 4-thione compounds and their use in therapy” (Cyclacel Limited, priority 2003, dated 2011):
# System: PEPCK gene expression
# Assay: PEPCK gene expression assay - qPCR in HEPG2 cells
# Assay type: cell-based
# Conditions: HEPG2; 100 nM + Dex/cAMP
# Experimental: PEPCK gene expression was studied in HEPG2 (hepatocarcinoma) cells, seeded in 6-well plate at […] per well. The cells were serum-starved for 20 hours before treatment with dexamethasone/cAMP (stimulator of PEPCK gene expression) in the presence or absence of insulin or GSK3 inhibitor example compounds. After 3 hours treatment the cells were harvested, lysed and RNA extracted using mini RNeasy spin columns (Quiagen). The primer set COD2063/COD2064 (350 bp) was used for the PEPCK gene. The one step RT-PCR was carried out using the Lightcycler-RNA Master SYBR Green 1 Kit. The qPCR analysis calculates the number of the PCR cycles required for the PCR product amplification to reach logarithmic phase. QPCR for a housekeeping gene—28S—was used for normalisation. PEPCK is a key enzyme in gluconeogenesis in the liver and it is known to be negatively regulated by insulin via inhibition of GSK3. The effect of example compounds on PEPCK gene expression was studied in HEPG2 cells treated with dexamethasone/cAMP (a positive regulator PEPCK gene expression) in the presence or absence of insulin or GSK3 inhibitors. Example compound inhibitors of GSK3 were efficient in the abolishment of dexamethasone/cAMP induced stimulation of PEPCK gene expression in HEPG2 cells.
substance,measurement,value
Insulin,"PEPCK gene expression, % of maximum stimulation",44.09 ± 11.07%
